How the values were obtained:
[1] = tested on: IGF-1R, AKT and ERK phosphorylation; assay: IGF-1R signaling activation in ES cell lines (WB for P-IGF-1R, P-AKT, P-ERK); assay type: cell-based; settings: serum starved ES cells
IGF-1R [2] = assay: IGF-1R degradation in MEF cells (β-arrestin knockouts, Δ1245 IGF-1R), WB; assay type: cell-based, mouse; settings: R− MEF expressing Δ1245 IGF-1R; over 48 h
Method: (§1) Protein lysates were analyzed by WB for IGF-1R and GAPDH as a loading control. […] Data correspond to the mean±SEM from three independent experiments. (B,D) Cell viability of the CP-treated cells for 48 h, in the absence (SFM) or presence of serum, was evaluated by PrestoBlue reagent. […] Data correspond to the mean±SEM from three independent experiments.
(§2) Appropriate primary antibody was incubated overnight at 4° C.

IGF-1R [3] = molecular target: T1, IGF-1R (Mus musculus, UniProt Q60751); assay: as above; assay type: cell-based; settings: 24 h
T1 construct: MEF cells expressing full length, wild type IGF-1R; endogenous in cells; host or cells: MEF, and MEF knockout for β-arrestin1, β-arrestin2 or both
T1 sequence (Q60751 31-737 limits assumed): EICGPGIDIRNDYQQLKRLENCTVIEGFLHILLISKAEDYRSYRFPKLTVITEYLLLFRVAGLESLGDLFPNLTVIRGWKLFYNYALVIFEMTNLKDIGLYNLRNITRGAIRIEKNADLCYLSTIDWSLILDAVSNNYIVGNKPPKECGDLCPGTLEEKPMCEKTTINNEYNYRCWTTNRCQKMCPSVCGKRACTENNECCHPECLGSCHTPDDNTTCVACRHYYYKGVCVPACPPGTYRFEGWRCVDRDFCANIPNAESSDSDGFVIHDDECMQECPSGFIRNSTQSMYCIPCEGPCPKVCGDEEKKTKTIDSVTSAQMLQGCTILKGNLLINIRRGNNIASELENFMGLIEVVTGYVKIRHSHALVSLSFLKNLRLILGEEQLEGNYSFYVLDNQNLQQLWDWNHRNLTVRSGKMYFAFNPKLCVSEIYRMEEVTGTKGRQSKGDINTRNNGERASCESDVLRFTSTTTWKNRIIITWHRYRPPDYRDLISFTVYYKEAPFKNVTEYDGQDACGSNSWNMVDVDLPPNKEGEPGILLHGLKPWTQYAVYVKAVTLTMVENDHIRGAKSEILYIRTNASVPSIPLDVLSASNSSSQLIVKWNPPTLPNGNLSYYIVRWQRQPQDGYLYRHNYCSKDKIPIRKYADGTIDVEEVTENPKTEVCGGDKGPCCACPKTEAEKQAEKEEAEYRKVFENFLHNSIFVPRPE
T1 sequence (Q60751 742-1373 limits assumed): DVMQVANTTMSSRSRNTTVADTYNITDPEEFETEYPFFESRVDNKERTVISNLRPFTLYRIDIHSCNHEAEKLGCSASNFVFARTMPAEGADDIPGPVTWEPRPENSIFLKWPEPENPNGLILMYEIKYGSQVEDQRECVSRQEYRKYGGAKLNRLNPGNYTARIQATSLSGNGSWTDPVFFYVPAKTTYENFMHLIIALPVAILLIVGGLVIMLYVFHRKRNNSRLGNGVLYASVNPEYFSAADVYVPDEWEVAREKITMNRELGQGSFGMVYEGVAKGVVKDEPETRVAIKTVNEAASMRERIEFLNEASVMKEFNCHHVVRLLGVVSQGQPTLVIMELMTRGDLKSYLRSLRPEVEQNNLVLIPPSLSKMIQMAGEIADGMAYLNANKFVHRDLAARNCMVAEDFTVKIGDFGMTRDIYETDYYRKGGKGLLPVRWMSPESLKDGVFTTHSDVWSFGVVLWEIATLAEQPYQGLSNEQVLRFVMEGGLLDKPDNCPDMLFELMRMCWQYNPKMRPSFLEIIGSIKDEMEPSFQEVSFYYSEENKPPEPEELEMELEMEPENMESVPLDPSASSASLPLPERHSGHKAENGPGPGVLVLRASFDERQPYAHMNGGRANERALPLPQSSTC
Method: as §1, §2

IGF-1R degradation (IGF-1R [3]; MEF without β-arr1 (β1KO or β1/2 KO)): almost completely abolished | IGF-1R degradation (IGF-1R [3]; control MEF and β2KO cells (expressing β-arr1)): drastically downregulated the receptor
Substance: IGF-1: classical ligand of IGF-1R, used at 50 ng/ml for stimulation
Time to phosphorylation of the IGF-1R activation loop [1]: ≤ 2 min | Degradation of truncated IGF-1R (Δ1245) (IGF-1R [2]): resistant
